Measurements published in paper PMC12337661, “PIEZO1 mechanical insensitivity in generalized lymphatic dysplasia with the potential for pharmacological rescue” (iScience, 2025).
≈ marks a conversion by molar mass, not a printed value.

What was measured:
[1] = target: T1, WT mPIEZO1 (Mus musculus, UniProt E2JF22); assay: Long substance exposure and hypo-osmolality protocol Ca2+ assay; format: cell-based; conditions: 10 μM, 20-min exposure, hypotonic assay
T1 construct: expressed in transfected cells
Procedure: (§1) For intracellular Ca^2+ assays, cells were plated at 80–90% confluence in 96-well plates 24 h prior to recordings (6–8 × 10^4 cells per well). […] Cells were washed with SBS and incubated at room temperature for 20 min prior to recordings. Equal volumes of 2x concentrated compounds were injected to test for acute channel activation. Pre-incubation with compounds occurred during the 20 min prior to recordings. To expose cell membranes to hypo-osmolality, an equal volume of hypotonic SBS (containing only 35 mM NaCl) was injected onto the cells. Measurements were made on a fluorescence plate reader (Flexstation III, Molecular Devices) at room temperature (21 ± 2°C). Fura-2 was excited at 340 nm and 380 nm and emitted light collected at 510 nm, with measurements shown as the change in fluorescence (F) ratio (ΔF340/380).
SI Figure S5: Hypo-osm ol al it y test in the Ca2+ assay, referred to in the main paper
(a) Typical 96-well plate mean ± s.e.m. data for changes in intracellular Ca2+ evoked by hypotonic (35 mM NaCl) or normotonic (135 mM NaCl) medium for WT- or Empty vector-transfected cells in increasing concentrations of Yoda1 as indicated and colour -coded on t he right (representative of n = 3-6 independent experiments). […]

[2] = Mouse plasma protein binding; format: in vitro ADME
Procedure: (§2) Aqueous solubility, mouse microsomal stability and mouse plasma protein binding assays were performed by Malvern Panalytical (UK) as previously described.[29]

[3] = Aqueous (kinetic) solubility; format: physicochemical; conditions: pH 7.4, aqueous buffer, kinetic from dmso stock; physiological pH in PBS
Procedure: as §2

[4] = Mouse microsomal stability; format: in vitro ADME; conditions: mouse microsomes
Procedure: as §2

[5] = design: method as in PMID 36457143, PMID 38716967, PMID 39402010; conditions: cited from earlier work
[6] = test system: T-REx-293 cells, empty vector (vector control); assay: Intracellular Ca2+ measurement (fura-2), T-REx-293 cells transiently transfected with empty vector; format: cell-based; conditions: 1 μM
Procedure: HEK 293 cell line was transiently transfected at 90% confluence using Lipofectamine 2000 (Invitrogen) in OptiMEM (Gibco). Briefly: 500 ng endotoxin-free DNA per 100μL OptiMEM was prepared alongside 3μL Lipofectamine 2000 per 100μL OptiMEM (Gibco). Both were incubated for 5 min and then mixed, and then incubated at room temperature (21°C–24°C) for 20–30 min. Finally, the transfection mix was gently added dropwise to the cells and the cells were placed in a humidified incubator at 37°C supplied with 5% CO2 for 5 h. Medium was replaced afterward, and cells were used for experimentation 48 h after transfection.
as §1
KC41 (Dooku1) was prepared as described.[28] All purchased chemicals and solvents were used without further purification unless otherwise stated. All compounds were at least 95% pure by 1H NMR. 1H Nuclear Magnetic Resonance spectra were recorded at 500 MHz using a Bruker DRX 500 instrument or at 400 MHz using a Bruker DPX 400. 1H spectra are referenced based on the residual proton in the solvent (e.g., the CHCl3, 0.01% in 99.99% CDCl3). Coupling constants (J) are reported to the nearest 0.1 Hz. 13C NMR spectra were recorded at 125 MHz on 500 MHz spectrometers or at 100 MHz on 400 MHz spectrometers. LC-MS was performed on a Bruker Daltronics running a gradient of increasing acetonitrile (5–95%) in H2O both containing 0.1% formic acid at 1 mL.min^−1, on a short path C18 reverse phase column, detecting compounds with both a diode array detector and a Bruker mass spectrum analyser. HRMS was performed on a Bruker Daltonics micrOTOF using positive electrospray ionisation (ES+). Automated column chromatograph was carried out using a Biotage Isolera Four, using either Sfär Silica D or KP-Silica cartridges. HPLC was performed on an Agilent 1290 Infinity Series equipped with a UV detector and Hyperprep C18 reverse phase column. Key to NMR abbreviations: s (singlet), br s (broad singlet) d (doublet), dd (doublet of doublets), ddd (doublet of doublets of doublets), t (triplet), dt (doublet of triples), q (quartet), m (multiplet), ap. t (apparent triplet). For experiments, Yoda1 and its analogues were prepared as 10 mM stock solutions in 100% dimethyl sulfoxide (DMSO) before serial dilution in DMSO and final dilution in aqueous solution. Cells were exposed to 0.1% DMSO for all concentrations of the compounds from 0 to 10 μM.

[7] = target: T2, G1994D mPIEZO1 (Mus musculus, UniProt E2JF22, G1994D); assay: Long substance exposure (20 min exposure) Ca2+ assay; format: cell-based
T2 construct: expressed in transfected cells
Description: Supplement mmc2.xlsx, sheet "Figure 5e" | column: Mean normalise fluorescence

T2 sequence (E2JF22 whole entry G1994D): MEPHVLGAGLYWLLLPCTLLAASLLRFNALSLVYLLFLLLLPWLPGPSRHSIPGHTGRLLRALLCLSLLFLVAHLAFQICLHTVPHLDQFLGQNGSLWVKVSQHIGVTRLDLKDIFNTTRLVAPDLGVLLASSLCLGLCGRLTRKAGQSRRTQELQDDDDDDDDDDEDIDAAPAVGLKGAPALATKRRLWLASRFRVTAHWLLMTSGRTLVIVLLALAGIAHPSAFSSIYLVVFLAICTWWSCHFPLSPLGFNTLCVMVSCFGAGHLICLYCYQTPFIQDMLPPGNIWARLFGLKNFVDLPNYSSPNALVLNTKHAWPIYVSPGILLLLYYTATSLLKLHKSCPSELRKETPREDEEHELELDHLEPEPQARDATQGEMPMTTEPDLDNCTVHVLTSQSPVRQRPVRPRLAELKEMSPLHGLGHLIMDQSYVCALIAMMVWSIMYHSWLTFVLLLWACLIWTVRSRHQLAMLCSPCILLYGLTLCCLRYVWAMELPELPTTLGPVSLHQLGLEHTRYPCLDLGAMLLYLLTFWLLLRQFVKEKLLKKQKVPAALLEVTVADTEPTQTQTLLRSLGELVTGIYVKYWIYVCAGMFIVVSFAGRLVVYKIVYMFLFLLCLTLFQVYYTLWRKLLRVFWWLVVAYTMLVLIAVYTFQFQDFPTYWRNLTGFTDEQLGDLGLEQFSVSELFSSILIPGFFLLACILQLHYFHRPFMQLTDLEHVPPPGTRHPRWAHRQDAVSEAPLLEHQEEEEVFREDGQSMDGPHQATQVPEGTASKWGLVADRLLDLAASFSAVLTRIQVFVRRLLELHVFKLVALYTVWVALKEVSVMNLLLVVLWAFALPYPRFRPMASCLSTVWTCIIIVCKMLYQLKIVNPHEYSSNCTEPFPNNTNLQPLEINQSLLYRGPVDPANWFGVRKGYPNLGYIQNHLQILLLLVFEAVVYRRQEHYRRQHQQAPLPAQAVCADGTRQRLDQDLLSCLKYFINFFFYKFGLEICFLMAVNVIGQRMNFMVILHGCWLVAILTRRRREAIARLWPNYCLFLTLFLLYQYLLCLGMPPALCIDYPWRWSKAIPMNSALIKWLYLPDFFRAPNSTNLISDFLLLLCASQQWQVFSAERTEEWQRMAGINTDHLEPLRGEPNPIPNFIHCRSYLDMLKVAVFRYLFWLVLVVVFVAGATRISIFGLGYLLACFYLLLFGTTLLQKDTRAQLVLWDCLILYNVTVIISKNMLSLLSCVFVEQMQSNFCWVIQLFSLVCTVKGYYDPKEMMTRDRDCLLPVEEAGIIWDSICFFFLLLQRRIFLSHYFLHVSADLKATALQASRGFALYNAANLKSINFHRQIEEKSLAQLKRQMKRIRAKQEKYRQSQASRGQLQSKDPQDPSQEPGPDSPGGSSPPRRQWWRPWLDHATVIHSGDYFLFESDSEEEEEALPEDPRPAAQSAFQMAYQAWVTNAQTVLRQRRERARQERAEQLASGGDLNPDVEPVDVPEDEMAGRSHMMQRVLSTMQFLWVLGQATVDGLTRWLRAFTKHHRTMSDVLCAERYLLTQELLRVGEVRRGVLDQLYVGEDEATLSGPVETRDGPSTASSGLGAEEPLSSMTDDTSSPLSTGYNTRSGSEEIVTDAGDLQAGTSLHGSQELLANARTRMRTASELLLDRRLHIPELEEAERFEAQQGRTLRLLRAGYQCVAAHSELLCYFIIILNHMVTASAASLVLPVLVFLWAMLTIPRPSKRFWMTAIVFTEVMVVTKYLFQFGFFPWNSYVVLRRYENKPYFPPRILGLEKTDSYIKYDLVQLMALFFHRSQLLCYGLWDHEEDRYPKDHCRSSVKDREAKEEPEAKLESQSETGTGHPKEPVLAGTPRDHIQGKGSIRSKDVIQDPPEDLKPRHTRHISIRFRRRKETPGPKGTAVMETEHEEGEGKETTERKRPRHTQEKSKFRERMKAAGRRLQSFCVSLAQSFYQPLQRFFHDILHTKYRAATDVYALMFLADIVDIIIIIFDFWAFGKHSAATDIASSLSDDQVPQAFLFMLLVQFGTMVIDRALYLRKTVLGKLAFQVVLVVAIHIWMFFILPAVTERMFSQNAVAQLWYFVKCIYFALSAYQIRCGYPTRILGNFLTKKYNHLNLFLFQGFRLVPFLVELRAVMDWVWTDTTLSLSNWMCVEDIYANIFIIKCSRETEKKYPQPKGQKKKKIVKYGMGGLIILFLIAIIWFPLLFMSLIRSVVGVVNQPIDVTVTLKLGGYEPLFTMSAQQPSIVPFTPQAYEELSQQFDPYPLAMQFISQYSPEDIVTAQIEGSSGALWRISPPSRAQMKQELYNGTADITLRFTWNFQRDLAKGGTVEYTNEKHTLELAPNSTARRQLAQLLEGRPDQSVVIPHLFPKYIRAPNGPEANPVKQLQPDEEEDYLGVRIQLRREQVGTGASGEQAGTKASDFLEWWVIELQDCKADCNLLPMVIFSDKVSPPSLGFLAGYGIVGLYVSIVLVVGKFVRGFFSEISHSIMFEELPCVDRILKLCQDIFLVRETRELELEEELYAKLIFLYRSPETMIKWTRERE
T1 sequence (E2JF22 whole entry): as the sequence (E2JF22 whole entry G1994D) above, with D1994G counted along it

Structure (SMILES): O=C(O)c1ccc(-c2cnc(SCc3c(Cl)cccc3Cl)s2)cc1 [Yoda2b, 4-(2-([(2,6-Dichlorophenyl)methyl]sulfanyl)-1,3-thiazol-5-yl)benzoic acid]
- more effective than Yoda1 under the hypotonic condition [1]: about 25%
- unbound to mouse plasma proteins [2]: 0.4%
- solubility kinetic [3]: 6.1 µM (≈ 2.42 µg/mL)
- half-life [4]: 7.2 min

Structure (SMILES): Clc1cccc(Cl)c1CSc1nnc(-c2cnccn2)s1 [Yoda1]
- aqueous solubility limit [5]: ~2 µM (≈ 0.711 µg/mL)
- fluorescence (ΔFratio) ([6]; time 0 s): 0.00237
- fluorescence (ΔFratio) ([6]; time 5 s): -0.00988
- fluorescence (ΔFratio) ([6]; time 10 s): 0.01607
- fluorescence (ΔFratio) ([6]; time 15 s): 0.00395
- fluorescence (ΔFratio) ([6]; time 20 s): -3.91E-04
- fluorescence (ΔFratio) ([6]; time 25 s): -0.01211
- fluorescence (ΔFratio) ([6]; time 30 s): -0.08353
- fluorescence (ΔFratio) ([6]; time 35 s): 0.00717
- fluorescence (ΔFratio) ([6]; time 40 s): 0.03324
- fluorescence (ΔFratio) ([6]; time 45 s): 0.05289
- fluorescence (ΔFratio) ([6]; time 50 s): 0.03768
- fluorescence (ΔFratio) ([6]; time 55 s): 0.03322
- fluorescence (ΔFratio) ([6]; time 60 s): 0.03103
- fluorescence (ΔFratio) ([6]; time 65 s): 0.02272
- fluorescence (ΔFratio) ([6]; time 70 s): 0.00255
- fluorescence (ΔFratio) ([6]; time 75 s): 0.00791
- fluorescence (ΔFratio) ([6]; time 80 s): -0.00287
- fluorescence (ΔFratio) ([6]; time 85 s): 0.01077
- fluorescence (ΔFratio) ([6]; time 90 s): -0.01792
- fluorescence (ΔFratio) ([6]; time 95 s): -0.01119
- fluorescence (ΔFratio) ([6]; time 100 s): 0.01819
- fluorescence (ΔFratio) ([6]; time 105 s): 8.16E-04
- fluorescence (ΔFratio) ([6]; time 110 s): 0.00558
- fluorescence (ΔFratio) ([6]; time 115 s): 0.00369
- fluorescence (ΔFratio) ([6]; time 120 s): 7.66E-04
- fluorescence (ΔFratio) ([6]; time 125 s): 0.00667
- Mean normalise fluorescence (Figure 5e) ([7]; Yoda1 concentration 0.03 µM): 0.2099
- Mean normalise fluorescence (Figure 5e) ([7]; Yoda1 concentration 0.1 µM): 0.1039
- Mean normalise fluorescence (Figure 5e) ([7]; Yoda1 concentration 0.3 µM): 0.5452
- Mean normalise fluorescence (Figure 5e) ([7]; Yoda1 concentration 1 µM): 1.026
- Mean normalise fluorescence (Figure 5e) ([7]; Yoda1 concentration 3 µM): 1
- Mean normalise fluorescence (Figure 5e) ([7]; Yoda1 concentration 10 µM): 1.103
